Measurements taken from patent US7238701B2, “Substituted tetrahydrobenzothienopyrimidinamine compounds useful for treating hyper-proliferative disorders” (Bayer Pharmaceuticals Corporation, priority 2003, dated 2007).

Key:
[1] = test system: BT474 (human breast carcinoma); assay: In vitro tumor cell proliferation assay (Cell Titer-Glo luminescent cell viability), BT474 cells; format: cell-based; settings: BT-474, 72 hours drug exposure, 10% Fetal Bovine Serum, ATP luminescence readout, read-out: IC50 (50% inhibition of cell proliferation)
In short: (§1)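 ATP luminescence (CellTiter-Glo) measured proliferation after 72 h compound exposure at 37 °C, giving IC50 values. Serial dilutions spanning 64 pM–100 μM in 0.1% DMSO were applied one day after plating 2.5×10^3 cells/well in RPMI plus 10% fetal bovine serum.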

[2] = test system: A431cells (human epidermoid carcinoma); assay: In vitro tumor cell proliferation assay (Cell Titer-Glo luminescent cell viability), A431 cells; format: cell-based; settings: A-431, 72 h, 72 hours drug exposure, 10% Fetal Bovine Serum, ATP luminescence readout, read-out: IC50 (50% inhibition of cell proliferation)
In short: as §1

SMILES	IC50 [1] [µM]	IC50 [2] [µM]
N#Cc1ccc(N2CCN(CCC3CCc4c(sc5ncnc(Nc6ccc(OCc7cccc(F)c7)c(Cl)c6)c45)C3)CC2)cc1 (stereo not shown) [Example 172, 4-(4-{2-[4-({3-chloro-4-[(3-fluorobenzyl)oxy]phenyl}amino)-5,6,7,8-tetrahydro[1]benzothieno[2,3-d]pyrimidin-7-yl]ethyl}piperazin-1-yl)benzonitrile]	< 5	< 50
CCOC(=O)CC1CCc2c(sc3ncnc(Nc4ccc(OCc5ccccn5)c(Cl)c4)c23)C1 (stereo not shown) [Example 173, {4-[3-Chloro-4-(pyridin-2-ylmethoxy)-phenylamino]-5,6,7,8-tetrahydro-benzo[4,5]thieno[2,3-d]pyrimidin-7-yl}-acetic acid ethyl ester]	< 5	< 50
OCCC1CCc2c(sc3ncnc(Nc4ccc(OCc5ccccn5)c(Cl)c4)c23)C1 (stereo not shown) [Example 174, 2-{4-[3-Chloro-4-(pyridin-2-ylmethoxy)-phenylamino]-5,6,7,8-tetrahydro-benzo[4,5]thieno[2,3-d]pyrimidin-7-yl}-ethanol]	< 5	< 50
CS(=O)(=O)OCCC1CCc2c(sc3ncnc(Nc4ccc(OCc5ccccn5)c(Cl)c4)c23)C1 (stereo not shown) [Example 175, Methanesulfonic acid 2-{4-[3-chloro-4-(pyridin-2-ylmethoxy)-phenylamino]-5,6,7,8-tetrahydro-benzo[4,5]thieno[2,3-d]pyrimidin-7-yl}-ethyl ester]	< 5	< 5
COCCNCCC1CCc2c(sc3ncnc(Nc4ccc(OCc5ccccn5)c(Cl)c4)c23)C1 (stereo not shown) [Example 176, N-[3-chloro-4-(pyridin-2-ylmethoxy)phenyl]-7-{2-[(2-methoxyethyl)amino]ethyl}-5,6,7,8-tetrahydro[1]benzothieno[2,3-d]pyrimidin-4-amine]	< 5	< 5
Clc1cc(Nc2ncnc3sc4c(c23)CCC(CCN2CCOCC2)C4)ccc1OCc1ccccn1 (stereo not shown) [Example 177, [3-Chloro-4-(pyridin-2-ylmethoxy)-phenyl]-[7-(2-morpholin-4-yl-ethyl)-5,6,7,8-tetrahydro-benzo[4,5]thieno[2,3-d]pyrimidin-4-yl]-amine]	< 5	< 5
CS(=O)(=O)CCNCCC1CCc2c(sc3ncnc(Nc4ccc(OCc5ccccn5)c(Cl)c4)c23)C1 (stereo not shown) [Example 178, N-[3-chloro-4-(pyridin-2-ylmethoxy)phenyl]-7-(2-{[2-(methylsulfonyl)ethyl]amino}ethyl)-5,6,7,8-tetrahydro[1]benzothieno[2,3-d]pyrimidin-4-amine]	< 5	< 5
OCCN(CCO)CCC1CCc2c(sc3ncnc(Nc4ccc(OCc5ccccn5)c(Cl)c4)c23)C1 (stereo not shown) [Example 179, 2,2′-{[2-(4-{[3-chloro-4-(pyridin-2-ylmethoxy)phenyl]amino}-5,6,7,8-tetrahydro[1]benzothieno[2,3-d]pyrimidin-7-yl)ethyl]imino}diethanol]	< 5	< 5
OCCNCCC1CCc2c(sc3ncnc(Nc4ccc(OCc5ccccn5)c(Cl)c4)c23)C1 (stereo not shown) [Example 180, 2-{[2-(4-{[3-chloro-4-(pyridin-2-ylmethoxy)phenyl]amino}-5,6,7,8-tetrahydro[1]benzothieno[2,3-d]pyrimidin-7-yl)ethyl]amino}ethanol]	< 5	< 50
CN(C)[C@@H]1CCN(CCC2CCc3c(sc4ncnc(Nc5ccc(OCc6ccccn6)c(Cl)c5)c34)C2)C1 (stereo partly drawn) [Example 181, N-[3-chloro-4-(pyridin-2-ylmethoxy)phenyl]-7-{2-[(3R)-3-(dimethylamino)pyrrolidin-1-yl]ethyl}-5,6,7,8-tetrahydro[1]benzothieno[2,3-d]pyrimidin-4-amine]	< 5	< 50
Clc1cc(Nc2ncnc3sc4c(c23)CCC(CCn2ccnc2)C4)ccc1OCc1ccccn1 (stereo not shown) [Example 182, N-[3-chloro-4-(pyridin-2-ylmethoxy)phenyl]-7-[2-(1H-imidazol-1-yl)ethyl]-5,6,7,8-tetrahydro[1]benzothieno[2,3-d]pyrimidin-4-amine]	< 5	< 50
CN1CCN(CCC2CCc3c(sc4ncnc(Nc5ccc(OCc6ccccn6)c(Cl)c5)c34)C2)CC1 (stereo not shown) [Example 183, N-[3-chloro-4-(pyridin-2-ylmethoxy)phenyl]-7-[2-(4-methylpiperazin-1-yl)ethyl]-5,6,7,8-tetrahydro[1]benzothieno[2,3-d]pyrimidin-4-amine]	< 5	< 5
CN(C)CCNCCC1CCc2c(sc3ncnc(Nc4ccc(OCc5ccccn5)c(Cl)c4)c23)C1 (stereo not shown) [Example 184, N′-[2-(4-{[3-chloro-4-(pyridin-2-ylmethoxy)phenyl]amino}-5,6,7,8-tetrahydro[1]benzothieno[2,3-d]pyrimidin-7-yl)ethyl]-N,N-dimethylethane-1,2-diamine]	< 5	< 5
CN(C)CCC1CCc2c(sc3ncnc(Nc4ccc(OCc5ccccn5)c(Cl)c4)c23)C1 (stereo not shown) [Example 185, N-[3-chloro-4-(pyridin-2-ylmethoxy)phenyl]-7-[2-(dimethylamino)ethyl]-5,6,7,8-tetrahydro[1]benzothieno[2,3-d]pyrimidin-4-amine]	< 5	< 5
O[C@H]1CCN(CCC2CCc3c(sc4ncnc(Nc5ccc(OCc6cccc(F)c6)c(Cl)c5)c34)C2)C1 (stereo partly drawn) [Example 186, (3S)-1-{2-[4-({3-chloro-4-[(3-fluorobenzyl)oxy]phenyl}amino)-5,6,7,8-tetrahydro[1]benzothieno[2,3-d]pyrimidin-7-yl]ethyl}pyrrolidin-3-ol]	< 5	< 5
CNCCC1CCc2c(sc3ncnc(Nc4ccc(OCc5ccccn5)c(Cl)c4)c23)C1 (stereo not shown) [Example 187, N-[3-chloro-4-(pyridin-2-ylmethoxy)phenyl]-7-[2-(methylamino)ethyl]-5,6,7,8-tetrahydro[1]benzothieno[2,3-d]pyrimidin-4-amine]	< 5	< 50
COCCN1CCN(CCC2CCc3c(sc4ncnc(Nc5ccc(OCc6ccccn6)c(Cl)c5)c34)C2)CC1 (stereo not shown) [Example 188, N-[3-chloro-4-(pyridin-2-ylmethoxy)phenyl]-7-{2-[4-(2-methoxyethyl)piperazin-1-yl]ethyl}-5,6,7,8-tetrahydro[1]benzothieno[2,3-d]pyrimidin-4-amine]	< 5	< 50
COCCN(C)CCC1CCc2c(sc3ncnc(Nc4ccc(OCc5ccccn5)c(Cl)c4)c23)C1 (stereo not shown) [Example 189, N-[3-chloro-4-(pyridin-2-ylmethoxy)phenyl]-7-{2-[(2-methoxyethyl)(methyl)amino]ethyl}-5,6,7,8-tetrahydro[1]benzothieno[2,3-d]pyrimidin-4-amine]	< 5	< 5
Clc1cc(Nc2ncnc3sc4c(c23)CCC(CCN2CCCC2)C4)ccc1OCc1ccccn1 (stereo not shown) [Example 190, N-[3-chloro-4-(pyridin-2-ylmethoxy)phenyl]-7-(2-pyrrolidin-1-ylethyl)-5,6,7,8-tetrahydro[1]benzothieno[2,3-d]pyrimidin-4-amine]	< 5	< 5
Clc1cc(Nc2ncnc3sc4c(c23)CCC(CCN2CCCCC2)C4)ccc1OCc1ccccn1 (stereo not shown) [Example 191, N-[3-chloro-4-(pyridin-2-ylmethoxy)phenyl]-7-(2-piperidin-1-ylethyl)-5,6,7,8-tetrahydro[1]benzothieno[2,3-d]pyrimidin-4-amine]	< 5	< 5
Clc1cc(Nc2ncnc3sc4c(c23)CCC(CCNCCN2CCOCC2)C4)ccc1OCc1ccccn1 (stereo not shown) [Example 192, N-[3-chloro-4-(pyridin-2-ylmethoxy)phenyl]-7-{2-[(2-morpholin-4-ylethyl)amino]ethyl}-5,6,7,8-tetrahydro[1]benzothieno[2,3-d]pyrimidin-4-amine]	< 5	< 5
CCNCCC1CCc2c(sc3ncnc(Nc4ccc(OCc5ccccn5)c(Cl)c4)c23)C1 (stereo not shown) [Example 193, N-[3-chloro-4-(pyridin-2-ylmethoxy)phenyl]-7-[2-(ethylamino)ethyl]-5,6,7,8-tetrahydro[1]benzothieno[2,3-d]pyrimidin-4-amine]	< 5	< 5
CCN(CC)CCC1CCc2c(sc3ncnc(Nc4ccc(OCc5ccccn5)c(Cl)c4)c23)C1 (stereo not shown) [Example 194, N-[3-chloro-4-(pyridin-2-ylmethoxy)phenyl]-7-[2-(diethylamino)ethyl]-5,6,7,8-tetrahydro[1]benzothieno[2,3-d]pyrimidin-4-amine]	< 5	< 5
COCCCNCCC1CCc2c(sc3ncnc(Nc4ccc(OCc5ccccn5)c(Cl)c4)c23)C1 (stereo not shown) [Example 195, N-[3-chloro-4-(pyridin-2-ylmethoxy)phenyl]-7-{2-[(3-methoxypropyl)amino]ethyl}-5,6,7,8-tetrahydro[1]benzothieno[2,3-d]pyrimidin-4-amine]	< 5	< 5
Clc1cc(Nc2ncnc3sc4c(c23)CCC(CCN2CCN(Cc3ccncc3)CC2)C4)ccc1OCc1ccccn1 (stereo not shown) [Example 196, N-[3-chloro-4-(pyridin-2-ylmethoxy)phenyl]-7-{2-[4-(pyridin-4-ylmethyl)piperazin-1-yl]ethyl}-5,6,7,8-tetrahydro[1]benzothieno[2,3-d]pyrimidin-4-amine]	< 5	< 5
O[C@@H]1CCN(CCC2CCc3c(sc4ncnc(Nc5ccc(OCc6cccc(F)c6)c(Cl)c5)c34)C2)C1 (stereo partly drawn) [Example 197, (3R)-1-{2-[4-({3-chloro-4-[(3-fluorobenzyl)oxy]phenyl}amino)-5,6,7,8-tetrahydro[1]benzothieno[2,3-d]pyrimidin-7-yl]ethyl}pyrrolidin-3-ol]	< 5	< 5
